Results taken from patent US20160318844A1, “PROSTACYCLIN COMPOUNDS, COMPOSITIONS AND METHODS OF USE THEREOF” (Insmed Incorporated, priority 2015, published 2016).

Key:
[1] = Treprostinil alkyl ester conversion to treprostinil in dog lung tissue homogenate; assay type: in vitro ADME; conditions: 37° C.
Method: Here, data were calculated based on fit of exponential increase to the maximum (experiments performed in duplicate). The results of this study are provided below in Table 2A and FIG. 37. […] In this experiment, treprostinil alkyl esters were incubated for 4 hours at a final concentration of 200 nM in 1 mL of tissue homogenate prepared in water and normalized to 10 mg/mL of protein.
C12-TR was incubated for 4 hours at a final concentration of 200 nM in 1 mL of tissue homogenate prepared in water and normalized to 10 mg/mL of protein. Both FIG. 37 experiments (eft and right graphs) were performed in duplicate and the lines represent nonlinear exponential regression assuming 1 phase decay. Table 2A. Rate of treprostinil alkyl ester conversion in the presence of rat, dog or monkey lung tissue homogenate.

[2] = test system: CHO-K1 cells; experiment: CHO-K1 cell proliferation assay (Presto Blue); conditions: for Effect on cell proliferation, CHO-K1 Cells: detectable cell inhibition: Table 9, unformulated alkyl esters, (0.195 μM-25 μM), 48 hour incubation
Method: CHO-K1 cells were harvested when the cell monolayer was 50-90% confluent (use passage 4-11). Media was aspirated out of the flask, and cells were rinsed with 2 mL of F12 media. Next, 1 mL of pre-warmed (37° C.) 0.25% trypsin-EDTA (Life Technologies, Cat#: 25300054) was added, and cells were dislodged from the flask by tapping it on the side. Complete growth media (F12 (Life Technologies, Cat #: 31765092)+10% FBS (Hyclone, Cat #: SH30071.03)+1× Pen-Strep (Life Technologies, cat #15140-122) was then added at a volume of 10 mL. Cells were centrifuged at 250×g for 5 minutes at room temperature, and the media was aspirated. The cell pellet was resuspended in 10 mL complete growth media. Cell number was determined using a hemacytometer. Cells were then seeded at 2000 cells per well of a 96-well plate in 100 μL of complete growth media. The plate was incubated overnight at 37° C. and 5% CO2 in a water-jacketed incubator.
The next day, 80 μL of fresh complete media was added to each well, and CHO-K1 cells were challenged with treprostinil compound and composition treatments. The working solutions were prepared at 10× concentration, and following 2 fold serial dilutions, 20 μL aliquots were added per well to arrive at a final 1× concentration. Following a 48 hour incubation at 37° C. and 5% CO2 in a water-jacketed incubator, the inhibitory effect on cell proliferation was determined. Plates were analyzed using 20 μL of Presto Blue reagent (Life Technologies, cat #: A13262) per well. The reagent was mixed, and plates were incubated for 1 hour at 37° C. and 5% CO2 in a waterjacketed incubator. Plates were read using either a CytoFluor Series 4000 (PerSeptive BioSystems) or Synergy Neo microplate reader (BioTek) with emission λ: 590 nm and excitation λ: 560 nm. […]
CHO-K1 cells were challenged with treprostinil alkyl esters, i.e., TR compounds of Formula (A), having the following R2 groups: […]
C2, C3, C4, C5, C6, C8, C10 or C12 straight chain alkyl, at dosages ranging from 0.098 μM to 25 μM. Following a 48 hour incubation period, the inhibitory effect on cell proliferation was determined.
Following a 72 hour incubation period, the inhibitory effect on cell proliferation was determined. Following a 48 hour incubation period, the inhibitory effect on cell proliferation was determined. […]

[3] = test system: NR8383 cells; experiment: NR8383 cell proliferation assay; assay type: cell-based, rat; conditions: for Effect on cell proliferation, NR8383 Cells: detectable cell inhibition: Table 9, unformulated alkyl esters, (0.195 μM-25 μM), 72 hour incubation
Method: Rat alveolar NR8383 cells were harvested when the monolayer was 50-90% confluent (use passage 5-11). Because the NR8383 cells include both adherent and non-adherent cells, media was transferred to a 50 mL Falcon tube. To obtain the cells remaining in the flask, 2 mL of plain media was added, and the remaining cells were scraped out of the 75 cm^2 flask with a cell scraper and added to the 50 mL tube. […] SH30071.03)+1×Pen-Strep (Life Technologies, cat #: 15410-122)). Cell number was determined using a hemacytometer. […] Measurements and calculations were made as described above for the CHO-K1 cells. Rat alveolar NR8383 cells were challenged with the same treprostinil derivative compositions: […]

[4] = test system: beagle dogs; experiment: Clinical signs in dogs after inhalation; conditions: targeted dose of 18 μg/kg
Method: Dosimetry was performed in propofol-anesthetized dogs in which nebulized drugs were introduced into a mixing chamber interposed on the inspiratory limb of a canine respirator. Technical trials were performed before each experiment to measure the concentration of drug (μg/L) delivered for each breath. The inhaled drug dose (μg/kg) was calculated using the formula: Inhaled Drug Dose (μg/kg)=Drug Conc. (μg/L)×Minute Ventilation (L/min.)×Time (min.)/Body Weight (kg). […] Clinical signs were monitored over this 72 hr. period.
Dosimetry was performed in propofol-anesthetized, artificially ventilated dogs in which nebulized drugs were introduced into a mixing chamber interposed on the inspiratory limb of the respirator. Technical trials were performed before each experiment measuring the concentration of drug (μg/L) per breath, minute ventilation and time required to achieve a targeted pulmonary dose. […] Clinical signs (cough, rapid shallow breathing, emesis and pale gums) were also monitored.

[5] = physchem; conditions: organic solvent or mixture, thermodynamic from solid
Method: Selected treprostinil derivatives were evaluated for the use in a metered dose inhaler (MDI).
5 mg of each treprostinil compound was added in a glass bottle. Specific amount of ethanol was added by weight. An MDI valve was crimped to each bottle, and HFA propellant added through the valve to the total volume of 5 mL. Compounds were allowed to dissolve for 24 hours at room temperature. The formulations were assessed visually for solubility. The goal was to estimate the minimum ethanol concentration required to solubilize each compound in propellant.
Soluble samples presented as clear and colorless solutions. […] Non-soluble samples had white precipitate or crystals formed. Ethanol was added as a solubility aid.

Rate of treprostinil alkyl ester conversion [1]	solubility at 24 h ([5]; Solubility in HFA-134a with added ethanol) [µg/mL]	solubility at 24 h ([5]; Solubility in HFA-227 with added ethanol) [µg/mL]	SMILES	Effect on cell proliferation, CHO-K1 Cells: detectable cell inhibition [2]	inhibition of CHO-K1 cell proliferation ([2]; unformulated alkyl esters, highest concentration, 48 hour)	Effect on cell proliferation, NR8383 Cells: detectable cell inhibition [3]	inhibition of NR8383 cell proliferation ([3]; unformulated alkyl esters, highest concentration, 72 hour)	adverse clinical signs [4]
49.8 nmOL/h * g of protein			CCCCCCCCOC(=O)COc1cccc2c1C[C@H]1C[C@@H](O)[C@H](CC[C@@H](O)CCCCC)[C@H]1C2 [Compound C8-TR, treprostinil octyl ester]	25 µM	showed inhibition of cell proliferation	Some detectable cell	showed some inhibition of cell proliferation	
2.2 nmOL/h * g of protein	> 1000	> 1000	CCCCCCCCCCCCOC(=O)COc1cccc2c1C[C@H]1C[C@@H](O)[C@H](CC[C@@H](O)CCCCC)[C@H]1C2 [Compound C12-TR, dodecyl-treprostinil]	No detectable cell inhibition		No detectable cell inhibition		Adverse clinical signs were seen
